Measured values reported in patent US5156955A, “Nucleoside oxidase and assay method utilizing same” (priority 1988, dated 1992).
Read-outs that look alike come from different tables or passages of the source.

Legend:
nucleoside oxidase YT-1 [1] = assay: Substrate specificity test (nucleoside oxidase activity, oxygen consumption); format: biochemical, Pseudomonas maltophilia LB-86; settings: for Relative activity: relative to activity on inosine taken as 100; for Substrate specificity (enzyme active / not active on substance): statement in words
Experimental: The consumption of 1 μM of oxygen per minute is taken as 1 unit (U).

nucleoside oxidase YT-1 [2] = format: biochemical, Pseudomonas maltophilia LB-86
Experimental: A solution of the present enzyme (0.02 U) was caused to act on inosine at pH 6.0 and 25° C. for 10 minutes in the presence of various inhibitors, and the enzymatic activity was thereafter measured.

nucleoside oxidase YT-1 [3] = assay: Influence of metal ions on the activity; format: biochemical, Pseudomonas maltophilia LB-86; settings: metal salt 0.1 mM; enzyme 0.02 U on inosine, pH 6.0, 25° C., 10 minutes
Experimental: A solution of the enzyme (0.02 U) was caused to act on inosine at pH 6.0 and 25° C. for 10 minutes in the presence of various metal ions, and the activity of the enzyme was thereafter measured to check the influence of the metal ions on the activity.

nucleoside oxidase YT-1 [4] = assay: Specificity test on laccase substrate (laccase-like activity in presence of inosine); format: biochemical, Pseudomonas maltophilia LB-86; settings: 1 mM laccase substrate, 7 mM inosine, one unit enzyme, 5 minutes
Experimental: The present enzyme was tested for the substrate specificity of its laccase-like activity in the presence of 7 mM inosine in the following manner. One unit of the present enzyme was added to a specimen containing 7 mM of inosine and 1 mM of the laccase substrate shown in Table 5, and the mixture was allowed to stand for 5 minutes. The absorption spectrum of the specimen was obtained before and after the addition of the enzyme.

nucleoside oxidase YT-1 [5] = settings: for Amount of oxygen consumption / Amount of p-quinone formed: 0.06 μM inosine
[6] = inhibitor 1 mM, enzyme 0.02 U on inosine, pH 6.0, 25° C., 10 minutes
[7] = 0.02 μM 1,4-hydroquinone, 1 U enzyme, pH 7.0
[8] = 0.06 μM 1,4-hydroquinone, 1 U enzyme, pH 7.0
[9] = 0.60 μM 1,4-hydroquinone, 1 U enzyme, pH 7.0

Question: With `Nc1ccn([C@@H]2O[C@H](CO)[C@@H](O)[C@H]2O)c(=O)n1` [Cytidine] as the molecule, how does the Relative activity (nucleoside oxidase YT-1 [1]; substrate 10 mM) read?
Answer: 77.5%

Question: With `CC(=O)[O-].CC(=O)[O-].[Pb+2]` [Pb(CH3 COO)2] as the molecule, how does the Relative activity (nucleoside oxidase YT-1 [2]; [6]) read?
Answer: 81.3%

Question: How did the Relative activity (nucleoside oxidase YT-1 [3]) turn out when `O=S(=O)([O-])[O-].[Mg+2]` [MgSO4] was run?
Answer: 102%

Question: With `O=S(=O)([O-])[O-].[Mn+2]` [MnSO4] as the molecule, how does the Relative activity (nucleoside oxidase YT-1 [3]) read?
Answer: 103%

Question: Which Relative activity (nucleoside oxidase YT-1 [1]; substrate 20 mM) does the source give for `O=CC[C@H](O)[C@H](O)CO` [2-Deoxy-D-ribose] here?
Answer: 0%

Question: For `O=C(O)CI` [Iodoacetic acid], which Relative activity (nucleoside oxidase YT-1 [2]; nucleoside oxidase yt-1, pH 6, 10 min, 1000 µM) is on record?
Answer: 100%

Question: `Nc1ccc(O)cc1` [p-Aminophenol] was tested. Which “Change in absorption spectrum due to reaction” value (“Change” for short) (nucleoside oxidase YT-1 [4]) did it give?
Answer: New peak at 360 nm

Question: With `c1cnc2c(c1)ccc1cccnc12` [o-Phenanthroline] as the molecule, how does the Relative activity (nucleoside oxidase YT-1 [2]; [6]) read?
Answer: 94.7%

Question: Which Relative activity (nucleoside oxidase YT-1 [2]; [6]) does the source give for `CCN(CC)CCCC(C)Nc1c2ccc(Cl)cc2nc2ccc(OC)cc12` (stereo not drawn) [Quinacrine] here?
Answer: 95.6%

Question: For `Nc1nc2c(ncn2[C@@H]2O[C@H](CO)[C@@H](O)[C@H]2O)c(=O)[nH]1` [Guanosine], which Relative activity (nucleoside oxidase YT-1 [1]; substrate 10 mM) is on record?
Answer: 121%

Question: For `O=C1CCC(=O)N1Br` [N-Bromosuccinimide], which Relative activity (nucleoside oxidase YT-1 [2]; [6]) is on record?
Answer: 0%

Question: What about the “Effect of inhibitor (enzyme inhibited)” value (nucleoside oxidase YT-1 [2]; statement in words) of the same molecule?
Answer: inhibited

Question: `O=c1ccn([C@@H]2O[C@H](CO)[C@@H](O)[C@H]2O)c(=O)[nH]1` [Uridine] was tested. Which Relative activity (nucleoside oxidase YT-1 [1]; substrate 10 mM) did it give?
Answer: 92.8%

Question: For `Cc1cn([C@H]2C[C@H](O)[C@@H](CO)O2)c(=O)[nH]c1=O` [Deoxythymidine], which Relative activity (nucleoside oxidase YT-1 [1]; substrate 10 mM) is on record?
Answer: 77.3%

Question: `Nc1nc2nc[nH]c2c(=O)[nH]1` [Guanine] was tested. Which Relative activity (nucleoside oxidase YT-1 [1]; substrate 0.4 mM) did it give?
Answer: 0%

Question: For `Nc1ncnc2c1ncn2[C@H]1C[C@H](O)[C@@H](CO)O1` [Deoxyadenosine], which Relative activity (nucleoside oxidase YT-1 [1]; substrate 10 mM) is on record?
Answer: 81.4%

Question: `Cc1cc(O)cc(O)c1` [Orcinol] was tested. Which “Change” value (nucleoside oxidase YT-1 [4]) did it give?
Answer: New peak at 340 nm

Question: With `Oc1cccc(O)c1O` [Pyrogallol] as the molecule, how does the “Change” value (nucleoside oxidase YT-1 [4]) read?
Answer: New peak at 370 nm

Question: `Nc1nc2c(ncn2[C@H]2C[C@H](O)[C@@H](CO)O2)c(=O)[nH]1` [Deoxyguanosine] was tested. Which Relative activity (nucleoside oxidase YT-1 [1]; substrate 10 mM) did it give?
Answer: 92.3%

Question: Which Relative activity (nucleoside oxidase YT-1 [2]; [6]) does the source give for `O=S(=O)(F)Cc1ccccc1` [Phenylmethylsulfonyl fluoride] here?
Answer: 95.3%

Question: Which “Change” value (nucleoside oxidase YT-1 [4]) does the source give for `O=C(O)/C=C/c1ccc(O)c(O)c1` [Caffeic acid] here?
Answer: New peak at 310 nm

Question: `NN.O=S(=O)(O)O` [Hydrazine sulfate] was tested. Which Relative activity (nucleoside oxidase YT-1 [2]; [6]) did it give?
Answer: 101%

Question: For `O=C[C@H](O)[C@H](O)[C@H](O)CO` [D-ribose], which “Substrate specificity (enzyme active / not active on substance)” value (nucleoside oxidase YT-1 [1]) is on record?
Answer: not active

Question: What about the Relative activity (nucleoside oxidase YT-1 [1]; substrate 20 mM) of the same molecule?
Answer: 0%

Question: With `[Cl][Hg][Cl]` [HgCl2] as the molecule, how does the Relative activity (nucleoside oxidase YT-1 [2]; [6]) read?
Answer: 69.2%

Question: Which “Change” value (nucleoside oxidase YT-1 [4]) does the source give for `Oc1ccc(O)cc1` [1,4-Hydroquinone] here?
Answer: New peak at 243 nm

Question: And the “Amount of oxygen consumption” value (nucleoside oxidase YT-1 [5]; [7])?
Answer: 0.069 µM

Question: What about the “Amount of p-quinone formed” value (nucleoside oxidase YT-1 [5]; [7]) of the same molecule?
Answer: 0.019 µM

Question: What about the “Amount of oxygen consumption” value (nucleoside oxidase YT-1 [5]; [8]) of the same molecule?
Answer: 0.089 µM

Question: What about the “Amount of p-quinone formed” value (nucleoside oxidase YT-1 [5]; [8]) of the same molecule?
Answer: 0.060 µM

Question: And the “oxygen used for oxidizing 1,4-hydroquinone” value (nucleoside oxidase YT-1 [5]; 0.115 μM minus 0.06 μM used for inosine, 0.12 μM 1,4-hydroquinone)?
Answer: 0.055 µM

Question: What about the “Amount of p-quinone formed” value (nucleoside oxidase YT-1 [5]; 0.12 μM 1,4-hydroquinone, 1 U enzyme, pH 7.0) of the same molecule?
Answer: 0.115 µM

Question: And the “Amount of oxygen consumption” value (nucleoside oxidase YT-1 [5]; 0.12 μM 1,4-hydroquinone, 1 U enzyme, pH 7.0 (Table 3))?
Answer: 0.112 µM

Question: And the “Amount of oxygen consumption” value (nucleoside oxidase YT-1 [5]; 0.12 μM 1,4-hydroquinone, room temperature, 10 minutes (stoichiometry test))?
Answer: 0.115 µM

Question: And the “Amount of oxygen consumption” value (nucleoside oxidase YT-1 [5]; [9])?
Answer: 0.115 µM

Question: What about the “Amount of p-quinone formed” value (nucleoside oxidase YT-1 [5]; [9]) of the same molecule?
Answer: 0.119 µM

Question: What about the “laccase reaction without nucleoside” value (nucleoside oxidase YT-1 [5]; enzyme mixed with laccase substrate, no nucleoside present) of the same molecule?
Answer: no reaction occurs

Question: How did the Relative activity (nucleoside oxidase YT-1 [1]; substrate 20 mM) turn out when `Nc1cc[nH]c(=O)n1` [Cytosine] was run?
Answer: 0%

Question: How did the Relative activity (nucleoside oxidase YT-1 [2]; [6]) turn out when `c1ccc(-c2ccccn2)nc1` [α,α'-Dipyridyl] was run?
Answer: 96.7%

Question: Which Relative activity (nucleoside oxidase YT-1 [1]; substrate 20 mM) does the source give for `O=c1cc[nH]c(=O)[nH]1` [Uracil] here?
Answer: 0%

Question: Which “Substrate specificity (enzyme active / not active on substance)” value (nucleoside oxidase YT-1 [1]) does the source give for `O=c1[nH]cnc2nc[nH]c12` [Hypoxanthine] here?
Answer: not active

Question: And the Relative activity (nucleoside oxidase YT-1 [1]; substrate 5.2 mM)?
Answer: 0%
